Measured values published in patent US10016413B2, “Combination dopamine antagonist and opiate receptor antagonist treatment of addictive behavior” (University of Maryland, Baltimore, priority 2012, dated 2018).
Entries after “also recorded” stand apart in the source; their conditions may differ.

Columns and labels:
[1] = system: cocaine induced reinstatement of CPP; assay: Cocaine induced reinstatement of CPP (mouse model of CPP); format: in vivo; conditions: conditioned with 10 mg/kg cocaine, reinstated with 5 mg/kg cocaine, l-THP 3 mg/kg, naltrexone 0.1 mg/kg, alone or combined
Procedure: Animals were conditioned using 10 mg/kg cocaine for 4 days, and reinstated using 5 mg/kg cocaine. Reinstatement was carried out 48 hours after CPP was extinct. The CPP score is calculated as a change in baseline from the cocaine conditioned chamber. A two way ANOVA followed by Bonferroni post test comparisons was used for analysis of the effect of treatment on cocaine reinstatement.
Fixed dose l-THP/LDN (3 mg/kg/0.1 mg/kg) were tested in mouse model of CPP.

locomotor activity = assay: Treatment effect on locomotor activity during extinction/treatment; format: in vivo, mouse; conditions: over the treatment period; l-THP 3 mg/kg, naltrexone 0.1 mg/kg, alone or combined
Procedure: Over the course of extinction/treatment the animal's locomotor activity was recorded. The locomotion scores graphed represent the treatment locomotion with the baseline locomotion score subtracted.

cocaine users = assay: Safety of l-THP in cocaine users: PD (blood pressure, heart rate); format: in vivo, human; conditions: for BP (Change from baseline %), first value of the pair / BP (Change from baseline %), second value of the pair / HR (Change from baseline %): n = 3
From the text: (§1) Data on safety of l-THP in six subjects of cocaine users was generated (Table 1). The major PD/PK parameters of the drug-drug interaction between l-THP and cocaine in cocaine users were compared between active drug and placebo groups. […] Since l-THP will be 10 fold more than LDN in the combination, the safety of l-THP is the major safety concern in the combination for human drug addicts.

[2] = PK of the drug-drug interaction between l-THP and cocaine in cocaine users; format: in vivo, human; conditions: cocaine users
From the text: as §1

cocaine addicted mice = assay: Naltrexone induced withdrawal (global withdrawal score); format: in vivo; conditions: mice treated with 10 mg/kg cocaine over 4 days
Procedure: Animals were treated with 10 mg/kg cocaine over 4 days. On the 5th day animals were injected with different dose of Naltrexone and 3 mg/kg l-THP. After injection animals were monitored for withdrawal behaviors for 20 minutes. Total counts for jumping, teeth chattering, paw tremors and grooming with assigned points were used to calculate the global withdrawal score. A one way ANVOA followed by Bonferroni post test comparisons was used to determine the effect naltrexone dose on withdrawal (***p<0.001 and *p<0.05 respectively) n=5 for each group. Global Scores were calculated.
This effect was attributed to cocaine's up regulation of endogenous opioids and the significant blockade of opioid receptor by naltrexone.

[3] = cocaine users, first column group headed Post cocaine 0 min
[4] = cocaine users, second column group headed Post cocaine 0 min

Compound: COc1cc2c(cc1OC)[C@@H]1Cc3ccc(OC)c(OC)c3CN1CC2 [l-THP, levo-tetrahydropalmatine]
- effect of treatment on cocaine reinstatement of CPP [1]: significant attenuation
- effect on locomotor activity (locomotion) (locomotor activity): significant effect on locomotion during week 3 and week 4; also recorded: reduced locomotor activity significantly
- peak changes in heart rate (HR) and blood pressure (BP) (cocaine users; cocaine users): within acceptable margin
- BP (Change from baseline %), first value of the pair (cocaine users; [3]): 8 ± 9.3%
- BP (Change from baseline %), second value of the pair (cocaine users; [3]): 10 ± 13%
- HR (Change from baseline %) (cocaine users; [3]): 23.6 ± 27.1%
- BP (Change from baseline %), first value of the pair (cocaine users; [4]): 5 ± 3%
- BP (Change from baseline %), second value of the pair (cocaine users; [4]): 5 ± 2%
- HR (Change from baseline %) (cocaine users; [4]): 8.5 ± 8.1%
- safety and tolerability in cocaine users (cocaine users; six subjects of cocaine users, active drug vs placebo): safe and well tolerated
- effect of l-THP pretreatment on the Cmax or AUC0-inf of cocaine ([2]; vs placebo pretreated): does not increase
- AUC(0-inf) ([2]; human, in vivo, n = 2, mean only, analyte l-THP, read-out: I-THP AUC 0-inf): 393 ng·h/mL
- Cmax ([2]; human, in vivo, n = 2, mean only, analyte l-THP, read-out: I-THP Cmax): 38 ng/mL

Compound: O=C1CC[C@@]2(O)[C@H]3Cc4ccc(O)c5c4[C@@]2(CCN3CC2CC2)[C@H]1O5 [naltrexone]
- effect of treatment on cocaine reinstatement of CPP [1]: did not have significant effect
- effect on locomotor activity (locomotion) (locomotor activity): did not display significant effect
- withdrawal, lower doses of naltrexone (cocaine addicted mice; naltrexone 1 mg/kg, 0.3 mg/kg and 0.1 mg/kg co-administered with l-THP (3 mg/kg)): did not produce withdrawal
- withdrawal symptoms, high dose naltrexone (cocaine addicted mice; naltrexone 30 mg/kg or 15 mg/kg co-administered with l-THP (3 mg/kg)): withdrawal symptoms occurred
